Experimental data from patent US20200323212A1, “PEST CONTROL COMPOSITION AND USE OF SAME” (SUMITOMO CHEMICAL COMPANY, LIMITED, priority 2017, published 2020).

System: ticks
Assay: Vial contact test, tick mortality after 48 hours (Test Examples 11, 14, 15)
Assay type: in vivo
Experimental: The Colby's calculation equation is shown as Equation 1 below.
E=X+Y−X×Y/100 (Equation 1)
Zero point two (0.2) mL of the solution was dropped to a 20 mL volume of vial, and the inner wall of the vial was coated homogeneously with the chemicals, and air-dried. Thereafter, ten ticks were released in the vial, and the vials were sealed with a lid. After 48 hours, the number of died ticks were examined, and the mortality (%) was calculated by the following equation 2. The three repetitions of each application dose were conducted.
Mortality (%)=(Number of dead pests/Number of supplied pests)×100 (Equation 2)
Zero point two (0.2) mL of the solution was dropped to a 20 mL volume of a vial, and the inner wall of the vial was coated homogeneously with the chemicals, and air-dried. Thereafter, ten ticks were released in the vial, and the vials were sealed with a lid. After 48 hours, the number of died ticks were examined, and the mortality (%) was calculated by the following equation 5. The three repetitions of each application dose were conducted.
Mortality (%)=(Number of dead pests/Number of supplied pests)×100 (Equation 5)
Zero point two (0.2) mL of the solution was dropped to a 20 mL volume of a vial, and the inner wall of the vial was coated homogeneously with the chemicals, and air-dried. Thereafter, ten ticks were released in the vial, and the vials were sealed with a lid. After 48 hours, the number of died ticks were examined, and the mortality (%) was calculated by the following equation 6. The three repetitions of each application dose were conducted.
Mortality (%)=(Number of dead pests/Number of supplied pests)×100 (Equation 6)

CCC(C)OC(=O)N1CCCCC1CCO (stereo not drawn) [sec-butyl=2-(2-hydroxyethyl)piperidine-1-carboxylate]
Mortality (Measured value) (sec-butyl=2-(2-hydroxyethyl)piperidine-1-carboxylate alone 10 mg/m^2): 70%

CCN(CC)C(=O)c1cccc(C)c1 [N,N-diethyl-m-toluamide]
Mortality (Measured value) (N,N-diethyl-m-toluamide alone 10 mg/m^2): 40% | Mortality (Measured value) (N,N-diethyl-m-toluamide alone 20 mg/m^2): 50%
